Experimental data reported in US20220202911A1 (Amryt Endo, Inc., priority 2020, published 2022).

Legend:
clinical [1] = conditions: human, in vivo; for AUC(0-t): AUC(0-12)
clinical [2] = conditions: human, plasma; for AUC(0-t): AUC(0-12)
Excerpt: (§1) This was a single-center, randomized, single-blind, placebo-controlled study in 18 healthy subjects. Two groups of subjects were studied in a 4-treatment, 2-sequence, and crossover design. The study was comprised of a screening period, a treatment period, and a follow-up period (approximately 10-13 days following the last test condition). Subjects were randomized in a 1:1 ratio to one of 2 sequences (i.e., Group 1 or 2) of 4 test conditions (i.e., A-D) as shown in Table 1.

[3] = digoxin 0.5 mg alone (placebo)
Excerpt: as §1

[4] = least squares geometric mean, Reference
[5] = least squares geometric mean, Test
[6] = oral, least squares geometric mean, digoxin alone (second geometric-mean column; no unit printed in Table 7)

Compound	AUC0-12 increase (clinical [1]) [%]	Cmax increase (clinical [1]) [%]	Tmax (clinical [1]) [h]	change in the rate of absorption (from Tmax) (clinical [1])	individual decreases in AUC0-12, 3 of 17 subjects (clinical [1])	individual increases in AUC0-12, remaining 14 subjects (clinical [1])	share of the 14 subjects with an increase in AUC0-12 that had an increase 25% (11 subjects) (clinical [1]) [%]	Tmax (clinical [1]; 20 mg) [h]	AUC(0-t) (clinical [1]; 20 mg, mean ± SD) [ng·h/mL]	AUC(0-t) (clinical [1]; [4]) [ng·h/mL]	AUC(0-t) (clinical [1]; [5]) [ng·h/mL]	Cmax (clinical [1]; [4]) [ng/mL]	Cmax (clinical [1]; [5]) [ng/mL]	Tmax (clinical [2]; oral) [h]	AUC(0-t) (clinical [2]; oral, 0.5 mg, mean ± SD, digoxin 0.5 mg alone (placebo)) [ng·h/mL]	AUC(0-t) (clinical [2]; [6]) [ng·h/mL]	Cmax (clinical [2]; [6]) [ng/mL]	Cmax (clinical [2]; po, mean ± SD, digoxin 0.5 mg oral single dose alone (placebo; lisinopril 20 mg co-administered)) [ng/mL]	Tmax, median [3] [h]
NCCCC[C@H](N[C@@H](CCc1ccccc1)C(=O)O)C(=O)N1CCC[C@H]1C(=O)O [Lisinopril, lisinopril]	40	50	7	no apparent change	6.17-16.1%	2.98-140%	79	7.5	690 ± 207	661	923	83.6	126	–	–	–	–	–	–
C[C@H]1O[C@@H](O[C@H]2[C@@H](O)C[C@H](O[C@H]3[C@@H](O)C[C@H](O[C@H]4CC[C@@]5(C)[C@H](CC[C@@H]6[C@@H]5C[C@@H](O)[C@]5(C)[C@@H](C7=CC(=O)OC7)CC[C@]65O)C4)O[C@@H]3C)O[C@@H]2C)C[C@H](O)[C@@H]1O [Digoxin, digoxin]	–	–	–	–	–	–	–	–	–	–	–	–	–	3	9.14 ± 2.03	8.91	2.38	2.5 ± 0.71	1
